Patent US9604987B2, “Synthesis of autophagy inducing compound and the uses thereof” (Hong Kong Baptist University, priority 2012, dated 2017)

Columns and labels:
[1] = test system: SH-SY5Y cells; test: Western blot of autophagy marker LC3-II in SH-SY5Y cells; format: cell-based, human; conditions: 0-25 μM, 24 hours
Description: (§1) Native and denatured PAGE and Western blotting analysis. Samples to be run under denaturing conditions were lysed with RIPA lysis buffer (150 mM NaCl, 50 mM Tris-HCl, 0.35% sodium deoxycholate, 1 mM EDTA, 1% NP40, 1 mM PMSF, 5 μg/ml aprotinin, 5 μg/ml leupeptin). Samples for native gels were lysed with detergent-free lysis buffer (50 mM Tris/HCl pH 7.4, 175 mM NaCl, 5 mM EDTA pH 8.0, 1 mM PMSF, 5 μg/ml aprotinin, 5 μg/ml leupeptin), and sheared 5 times through a 28-gauge needle followed by 2 times of sonication for 5 seconds according to previously described protocol. For denaturing, SDS-PAGE was performed using Tris-Glycine SDS running buffer and SDS sample buffer, and for native conditions, native-PAGE was run with detergent-free Tris-Glycine running buffer (BN2007, Invitrogen) and 4× native sample buffer (BN2003, Invitrogen) on a pre-casted native PAGE gel (BN1002BOX, Invitrogen). The proteins on the gels were then transferred to PVDF membrane (RPN303F, GE Healthcare) and processed for immunoblotting. Membranes were blocked with 5% non-fat milk and probed with the appropriate primary and secondary antibodies. The desired bands were visualized using the ECL kit (32106, Pierce). The band density was quantified using the ImageJ program and normalized to that of the control group. […]

[2] = test system: Beclin-1; test: Beclin-1 expression and Beclin 1 siRNA depletion in N2a cells; format: cell-based, mouse
Description: FIG. 7: Western blot analysis of expression level of phosphorylated mTOR (p-mTOR) or its substrate P70S6K (p-P70S6K) in N2a cells with treatment of 25 μM Cory B or 0.2 μM rapamycin for 6 hours (FIG. 7A); western blot analysis of Beclin 1 expression in N2a cells with non-target or Beclin 1-specific siRNA treatments followed by Cory B (FIG. 7B)
To elucidate the molecular mechanism of Cory B action, the classic autophagy controlling pathway, the mTOR pathway is first examined. […] Several other pathways reported to be involved in the activation of autophagy, including AKT, AMPK, MEK/ERK, JNK, and ER stress pathways, and calcium signaling pathway (data not shown), are also tested.

[3] = test system: α-syn/synphilin-1 aggresomes in N2a cells; test: α-syn/synphilin-1 aggresome formation in N2a cells; format: cell-based, mouse; conditions: 25 μM, 48 hours
Description: α-syn and synphilin-1 are co-expressed in N2a cells to mimic aggresome formation and are treated with 25 μM Cory B or 5 mM 3-MA for 48 hours. Cells are fixed in 4% paraformaldehyde and analyzed under a fluorescence microscope. […] The inhibition of Cory B clearance of various forms of α-syn and α-syn/synphilin-1 aggresomes in the presence of 3-MA further validates that such clearance is via the autophagy pathway. Data are presented as the mean±SEM from 3 independent experiments (***p<0.001, one-way ANOVA for multiple comparison and Tukey's test as post hoc test).

[4] = test system: N2a cells; test: Tandem fluorescent mRFP-GFP-LC3 (Tf-LC3) autophagosome maturation in N2a cells; format: cell-based, mouse; conditions: 25 μM, 24 hours
Source text: Therefore, red-only puncta indicates the normal maturation of the autolysosomes. In contrast, co-localization of GFP and RFP puncta indicates impaired fusion between autophagosomes and lysosomes or disruption of lysosome function. Here, this system is utilized and establishes a pattern of GFP and mRFP fluorescence changes in N2a cells after Cory B treatment. Cells are fixed in 4% paraformaldehyde and analyzed under a confocal microscope. […] However, the number of GFP puncta is much lower as compared to mRFP puncta, indicating efficient autophagosome-lysosome maturation and degradation. In cells treated with CQ, there is similar accumulation of GFP and mRFP puncta due to lysosome inhibition. In cells treated with both CQ and Cory B, the number of GFP and mRFP puncta are even more than in the CQ-alone group, but GFP and mRFP puncta numbers are very similar (FIG. 2E, F). The observations further confirm that enhancement of GFP- and RFP-LC3-II puncta expression by Cory B are achieved via autophagy induction flux in neuronal cells rather than inhibiting lysosomal degradation of LC3-II. Results were presented as means±SEM of one representative experiment from three independent repeats (**p<0.01 compare the difference between GFP and RFP puncta in each group, two-way ANOVA for multiple comparison and Bonferroni test as post hoc test).

[5] = test system: PC12 cells; test: Western blot of autophagy marker LC3-II in PC12 cells; format: cell-based, rat; conditions: PC12, 0-25 μM, 24 hours
Description: as §1

[6] = test system: α-syn (WT, A53T, A30P) in N2a cells; test: Clearance of over-expressed WT and mutant α-syn in N2a cells (western blot); format: cell-based, mouse
Description: Native and denatured PAGE and Western blotting analysis. Samples to be run under denaturing conditions were lysed with RIPA lysis buffer (150 mM NaCl, 50 mM Tris-HCl, 0.35% sodium deoxycholate, 1 mM EDTA, 1% NP40, 1 mM PMSF, 5 μg/ml aprotinin, 5 μg/ml leupeptin). Samples for native gels were lysed with detergent-free lysis buffer (50 mM Tris/HCl pH 7.4, 175 mM NaCl, 5 mM EDTA pH 8.0, 1 mM PMSF, 5 μg/ml aprotinin, 5 μg/ml leupeptin), and sheared 5 times through a 28-gauge needle followed by 2 times of sonication for 5 seconds according to previously described protocol. For denaturing, SDS-PAGE was performed using Tris-Glycine SDS running buffer and SDS sample buffer, and for native conditions, native-PAGE was run with detergent-free Tris-Glycine running buffer (BN2007, Invitrogen) and 4× native sample buffer (BN2003, Invitrogen) on a pre-casted native PAGE gel (BN1002BOX, Invitrogen). The proteins on the gels were then transferred to PVDF membrane (RPN303F, GE Healthcare) and processed for immunoblotting. Membranes were blocked with 5% non-fat milk and probed with the appropriate primary and secondary antibodies. The desired bands were visualized using the ECL kit (32106, Pierce). The band density was quantified using the ImageJ program and normalized to that of the control group.
N2a cells over-expressed in WT and α-syn mutants (A53T and A30P) and N2a cells with GFP as negative control are subjected to Cory B treatment for 24 hours. […] Data presents as the mean±SEM from 3 independent experiments (*p<0.05, one-way ANOVA for multiple comparison and Tukey's test as post hoc test).

[7] = test system: α-syn oligomers; test: BiFC-based cell model of α-syn oligomer clearance (flow cytometry); conditions: 25 μM, 24 hours
Description: Second, the effect of Cory B on α-syn oligomers clearance is tested using a bimolecular fluorescence complementation (BiFC)-based cell model which enables visualization of α-syn oligomers. Two non-fluorescent fragments of GFP, GFP-N terminal fraction and GFP-C terminal fraction, are fused with α-syn protein; interaction of the two fragments reconstitutes the fluorophore (FIG. 5G). The presence of fluorescence signal indicates the formation of α-syn oligomers within cells. Mock transfected cells are used as blanks to gate the fluorescence-positive cells and signals stronger than 10^1 RFU are considered as positive α-syn oligomers formation. Cells are treated with 25 μM Cory B and/or 5 mM 3-MA for 24 hours and harvested for flow cytometry analysis.

[8] = test system: Inducible PC12 cells; test: HMGB1 translocation and autophagy in alpha-synuclein inducible PC12 cells; format: cell-based, rat; conditions: α-syn overexpression induced by Dox, 24 h
Description: Inducible PC12 cells are treated with […] Dox for 24 h in the presence of Corynoxine B (Cory B), rapamycin (Rap), wortmannin (Wort) or chloroquine (CQ). The expressions of induced HA-α-syn, endogenous LC3-II and Beclin-1 are determined by Western blotting (FIG. 10A). The expression of HMGB1 in the cytosolic and nuclear fractions are determined by Western blotting (FIG. 10B). b-actin and Lamin B1 are used as relative loading controls. Data are presented as the mean±SD from three independent experiments. ^#p<0.05 vs. un-induced control; *p<0.05 vs. Dox treatment; **p<0.05 vs. Dox+Cory B treatment.

In the case of `CC[C@@H]1CN2CC[C@]3(C(=O)Nc4ccccc43)C2C[C@@H]1C(=COC)C(=O)OC` (stereo partly drawn) [Cory B, Corynoxine B], the LC3-II levels [1] is reported as “increases levels of LC3-II”, the “expression of Beclin-1” value [2] is reported as “does not affect the expression of Beclin-1” and the “Cory B-induced autophagy under Beclin-1 siRNA treatment” value ([2]; Beclin 1-specific siRNA) is reported as “completely blocks”. For the same molecule, the “number of α-syn/synphilin-1 aggresomes” value [3] was “dramatically decreases the number of α-syn/synphilin-1 aggresomes”, the “GFP and mRFP puncta formation (Tf-LC3)” value [4] was “induces massive GFP and mRFP puncta formation” and the “number of GFP puncta compared to mRFP puncta” value [4] was “much lower”. For the same molecule, the LC3-II levels [5] was “increases levels of LC3-II”, the “α-syn pro-clearance activity under 3-MA and CQ” value ([6]; 5 mM 3-MA and 30 μM CQ) was “abolish pro-clearance activity” and the “WT and mutant α-syn levels” value ([6]; N2a over-expressing WT, A53T, A30P α-syn, 24 hours) was “reduces WT and mutant α-syn levels in a dose-dependent manner”. The “GFP levels (negative control protein)” value ([6]; N2a with GFP, 24 hours) was “does not reduce GFP levels”, the “degradation of α-syn oligomers (fluorescence intensity)” value [7] was “promotes degradation of α-syn oligomers” and the “cytosolic translocation of HMGB1 and autophagy” value [8] was “restored the deficient cytosolic translocation of HMGB1 and autophagy”.
